{
  "source": "patent US20110142842A1",
  "about": "“POLYPEPTIDES” (Medinnova AS, priority 2007, published 2011)",
  "system": "autologous responder cells (monocyte-depleted PBMC) from HLA-A*0201-negative donors",
  "assay": "Induction of pentamer positive CD8+ T cells by peptide-pulsed HLA-A*0201-transfected moDC (Example 8)",
  "type": "cell-based, human",
  "conditions": "for Day 12 % pent+/CD8+: day 12 of co-culture; for Day 19 % pent+/CD8+: day 19 of co-culture, after restimulation; for Day 12 Donors / Day 19 Donors: donors with positive response / donors tested",
  "experimental": "MoDC transfected with HLA-A*0201 mRNA were harvested 18 hours after transfection and resuspended in 1-2 ml of serum-free DC-medium containing 50 μg/ml peptide, such as MART-1 or peptide #19. The cells were incubated at 37° C., 5% CO2 for 4 hours, then washed once in serum-free RPMI.\nStimulator and responder cells were seeded at a stimulator to responder (S:R) ratio of 1:10, with 3.0×10^6 responders per well in serum-free DC medium containing 10 ng/ml IL-7 (PeproTech EC Ltd.), 50 pg/ml IL-12 (PeproTech EC Ltd.), and PPD at 1 μg/ml.\nOn day 12 the responder cells were harvested and analyzed for the presence of pentamer positive cells. The cells were either sorted or restimulated.\nRestimulation was done with autologous EBV-LCL transfected with HLA-A*0201 mRNA 12-24 hours prior to stimulation, harvested and resuspended in 1-2 ml of serum-free X-Vivo 20 (Cambrex) containing the same peptide as added on day 0 at 20 μg/ml, and incubated for 4 hours at 37° C., 5% CO2. Following incubation, the EBV-LCL were washed once in serum-free RPMI.\nFrom day 12 of co-culture with stimulator cells, the responders were harvested, counted and analyzed for the presence of pentamer positive cells weekly. The responder cells were either restimulated, as described above, or the pentamer positive cells were sorted and expanded as described below.\nMonocyte-derived dendritic cells (moDC) from HLA-A*0201-negative donors were transfected with HLA-A*0201 mRNA after maturation. 18-24 hours post-transfection the cells were pulsed with the peptides indicated in Table 2 for four hours, before co-culturing them with autologous responder cells (monocyte-depleted PBMC). On day 12 and day 19 and in some cases at day 26 of co-culture, the cells were harvested, stained with relevant peptide-MHC-pentamer and analyzed by flow cytometry. The percentage of pentamer positive cells was calculated by dividing the number of pentamer positive cells by the number of CD8+ cells. On day 12 and day 19, the cells were restimulated with autologous EBV-cells that were transfected with HLA-A*0201 mRNA and loaded for four hours with the relevant peptides indicated in Table 2.",
  "key": {"[1]": {"conditions": "day 26 per footnote c, printed in Day 19 column"}},
  "data": [
    {"sequence": "YLHVALDLL (homo sapiens) [Peptide 107, from MPO]", "values": [
      {"measurement": "Day 12 % pent+/CD8+", "result": 0, "unit": "%"},
      {"measurement": "Day 19 % pent+/CD8+", "result": 0.01, "unit": "%"},
      {"measurement": "Day 12 Donors", "result": "0/2"},
      {"measurement": "Day 19 Donors", "result": "1/2"}
    ]},
    {"sequence": "KIVEWDWKI (homo sapiens) [Peptide 109, from CD48]", "values": [
      {"measurement": "Day 12 % pent+/CD8+", "result": 0.03, "unit": "%"},
      {"measurement": "Day 19 % pent+/CD8+", "result": 0.05, "unit": "%"},
      {"measurement": "Day 12 Donors", "result": "1/2"},
      {"measurement": "Day 19 Donors", "result": "1/2"}
    ]},
    {"sequence": "YLGYTVTWL (homo sapiens) [Peptide 93, from CD11a]", "values": [
      {"measurement": "Day 12 % pent+/CD8+", "result": 0.02, "unit": "%"},
      {"measurement": "Day 19 % pent+/CD8+", "result": 0.06, "unit": "%"},
      {"measurement": "Day 12 Donors", "result": "1/2"},
      {"measurement": "Day 19 Donors", "result": "2/2"}
    ]},
    {"sequence": "FVANAIIHL (homo sapiens) [Peptide 111, from CD52]", "values": [
      {"measurement": "Day 12 % pent+/CD8+", "result": 0, "unit": "%"},
      {"measurement": "Day 19 % pent+/CD8+", "result": 0, "unit": "%"},
      {"measurement": "Day 12 Donors", "result": "0/2"},
      {"measurement": "Day 19 Donors", "result": "0/2"}
    ]},
    {"sequence": "RLYQFLLDL (homo sapiens) [Peptide 66, from PU.1]", "values": [
      {"measurement": "Day 12 % pent+/CD8+", "result": 0, "unit": "%"},
      {"measurement": "Day 19 % pent+/CD8+", "result": 0.03, "unit": "%"},
      {"measurement": "Day 12 Donors", "result": "0/2"},
      {"measurement": "Day 19 Donors", "result": "1/2"}
    ]},
    {"sequence": "LLWAGALAM (homo sapiens) [Peptide 86, from CD33]", "values": [
      {"measurement": "Day 12 % pent+/CD8+", "result": 0.14, "unit": "%"},
      {"measurement": "Day 19 % pent+/CD8+", "result": 0.35, "unit": "%"},
      {"measurement": "Day 12 Donors", "result": "2/4"},
      {"measurement": "Day 19 Donors", "result": "4/6"}
    ]},
    {"sequence": "LLFLTPMEV (homo sapiens) [Peptide 108, from CD19]", "values": [
      {"measurement": "Day 12 % pent+/CD8+", "result": 0.03, "unit": "%"},
      {"measurement": "Day 19 % pent+/CD8+", "result": 0.09, "unit": "%"},
      {"measurement": "Day 12 Donors", "result": "1/2"},
      {"measurement": "Day 19 Donors", "result": "1/2"}
    ]},
    {"sequence": "ALPAALAVI (homo sapiens) [Peptide 127, from CD7]", "values": [
      {"measurement": "Day 12 % pent+/CD8+", "result": 0, "unit": "%"},
      {"measurement": "Day 19 % pent+/CD8+", "result": 0.04, "unit": "%"},
      {"measurement": "Day 12 Donors", "result": "0/2"},
      {"measurement": "Day 19 Donors", "result": "1/2"}
    ]},
    {"sequence": "KLGGDLLRA (homo sapiens) [Peptide 129, from CD18]", "values": [
      {"measurement": "Day 12 % pent+/CD8+", "result": 0, "unit": "%"},
      {"measurement": "Day 19 % pent+/CD8+", "result": 0, "unit": "%"},
      {"measurement": "Day 12 Donors", "result": "0/2"},
      {"measurement": "Day 19 Donors", "result": "0/2"}
    ]},
    {"sequence": "SLWRRPFNV (homo sapiens) [Peptide 22, from MPO]", "values": [
      {"measurement": "Day 12 % pent+/CD8+", "result": 0, "unit": "%"},
      {"measurement": "Day 19 % pent+/CD8+", "result": 0.09, "unit": "%"},
      {"measurement": "Day 12 Donors", "result": "0/2"},
      {"measurement": "Day 19 Donors", "result": "1/2"}
    ]},
    {"sequence": "LMGTLIAKV (homo sapiens) [Peptide 83, from HA-1]", "values": [
      {"measurement": "Day 12 % pent+/CD8+", "result": 0, "unit": "%"},
      {"measurement": "Day 19 % pent+/CD8+", "result": 0, "unit": "%"},
      {"measurement": "Day 12 Donors", "result": "0/2"},
      {"measurement": "Day 19 Donors", "result": "0/2"}
    ]},
    {"sequence": "SMLDDLRNV (homo sapiens) [Peptide 24, from CD18]", "values": [
      {"measurement": "Day 12 % pent+/CD8+", "result": 0, "unit": "%"},
      {"measurement": "Day 19 % pent+/CD8+", "result": 0.05, "unit": "%"},
      {"measurement": "Day 12 Donors", "result": "0/2"},
      {"measurement": "Day 19 Donors", "result": "1/2"}
    ]},
    {"sequence": "SMFHVTLKI (homo sapiens) [Peptide 128, from CLL-1]", "values": [
      {"measurement": "% pent+/CD8+ (results d26)", "setting": "[1]", "result": 0.08, "unit": "%"},
      {"measurement": "Donors (results d26)", "setting": "[1]", "result": "1/3"}
    ]},
    {"sequence": "LLLPLLLAL (homo sapiens) [Peptide 28, from CD7]", "values": [
      {"measurement": "Day 12 % pent+/CD8+", "result": 0.01, "unit": "%"},
      {"measurement": "Day 19 % pent+/CD8+", "result": 0.19, "unit": "%"},
      {"measurement": "Day 12 Donors", "result": "1/2"},
      {"measurement": "Day 19 Donors", "result": "1/2"}
    ]},
    {"sequence": "LIQPFMFRL (homo sapiens) [Peptide 84, from MPO]", "values": [
      {"measurement": "Day 12 % pent+/CD8+", "result": 0, "unit": "%"},
      {"measurement": "Day 19 % pent+/CD8+", "result": 0, "unit": "%"},
      {"measurement": "Day 12 Donors", "result": "0/5"},
      {"measurement": "Day 19 Donors", "result": "0/4"}
    ]},
    {"sequence": "ALYDKTKRI (homo sapiens) [Peptide 115]", "values": [
      {"measurement": "Day 12 % pent+/CD8+", "result": 0, "unit": "%"},
      {"measurement": "Day 19 % pent+/CD8+", "result": 0, "unit": "%"},
      {"measurement": "Day 12 Donors", "result": "0/2"},
      {"measurement": "Day 19 Donors", "result": "0/2"}
    ]}
  ]
}
